Measured values as given in publication PMC6124754, “Characterization of new, efficient Mycobacterium tuberculosis topoisomerase-I inhibitors and their interaction with human ABC multidrug transporters” (PLoS ONE, 2018).
In brackets after ≈: the same amount, converted by molar mass. Entries after “also recorded” stand apart in the source; their conditions may differ. Like-named read-outs stand apart in the source and are kept apart here.

How the values were obtained:
HFF cell line = assay: Cytotoxicity, PrestoBlue 72 h, HFF; type: cell-based, human; conditions: Non-toxic = not toxic up to 20 μM; for IC50: read-out: Toxicity in HFF cell line, IC50
Description: (§1) The toxic effects of the selected MtTopo-I inhibitory Vichem compounds were tested in three cell lines, HFF (human foreskin fibroblast), HEK293 (human embryonic kidney) and A431 (human epidermoid carcinoma) cell lines, obtained from ATCC. Establishment of ABC transporter-expressing A431cell lines was achieved by retroviral transduction of the cells as described previously.
(§2) For cytotoxicity measurements the cells were seeded in a 96-well culture plate at 5,000 cells/well (A431, HEK293) or 6000 cells/well (HFF) and incubated overnight. […] After 72 hours of incubation viability was assessed by PrestoBlue® assay (Invitrogen). IC50 values were obtained by sigmoidal curve fitting in the GraphPad Prism software. All experiments were performed in triplicates and repeated at least in three independent experiments. DMSO, used as solvent of the compounds, had no effect on viability at the applied concentration.

HEK293 cell line = assay: Cytotoxicity, PrestoBlue 72 h, HEK293; type: cell-based, human; conditions: for IC50: Homo sapiens, HEK293, Non-toxic = not toxic up to 20 μM, read-out: Toxicity in HEK293 cell line, IC50; for Toxicity in HEK293 cell line, IC50: Non-toxic = not toxic up to 20 μM
Description: as §1, §2

parental A431 cell line = assay: Cytotoxicity, PrestoBlue 72 h, parental A431; type: cell-based, human; conditions: Non-toxic = not toxic up to 20 μM; for IC50: read-out: Toxicity in parental A431 cell line, IC50
Description: as §1, §2

MtTopo-I = target: T1, MtTopo-I (Mycobacterium tuberculosis, UniProt P9WG49); assay: DNA relaxation assay of supercoiled pUC18 DNA by MtTopo-I; type: biochemical; conditions: minimum concentration providing complete inhibition
T1 construct: made in house; host or cells: E. coli

H37Rv Mtb strain = assay: H37Rv growth inhibition, resazurin reduction microplate assay (REMA); type: cell-based, Mycobacterium tuberculosis; conditions: for MIC90: Mycobacterium tuberculosis, H37RV, read-out: MIC90 of compounds in H37Rv growth test; for MIC90 / MIC90 of compounds in H37Rv growth test: minimum concentration providing 90% growth inhibition, 20 to 0.04 μM, N.I. = no inhibition observed up to 20 μM; for Toxicity in H37Rv assay (summary): S6 summary table; for Growth inhibition of H37Rv mycobacteria (in words): tested up to 20 μM
human ABCB1 [1] = target: T2, human ABCB1 (Homo sapiens, UniProt P08183); assay: Cellular transport assay, Calcein-AM uptake in ABCB1-overexpressing PLB cells; type: cell-based; conditions: for ABC transporter transport assay, ABCB1 (summary): S6 summary table; for Effect on ABCB1 mediated transport (in words): PLB cells, compound 5 μM; as to ABC transporter transport assay, ABCB1 (summary): key: 0: no observed effect; +: effect observed in the assay; In the ATPase assay showing only inhibition, the - sign is applied
Description: (§3) For cellular transport assays, mammalian PLB (lymphoblastoid) cell lines, overexpressing ABCB1 or ABCG2 were used. The parental PLB cell line was purchased from ATCC, and ABCB1 or ABCG2 overexpressing cell lines were established by using lentiviral vectors for human ABC transporters as described earlier in [29]. The transport assays were carried out in 96-well plates. 1x10^5 cells were incubated in the presence of 0.1 μM Calcein-AM or 1 μM DCV (Dye Cycler Violet) for the ABCB1 and for the ABCG2 assays, respectively. The assay was performed in HPMI medium (NaCl 120 mM, KCl 5 mM, MgCl2 0.4 mM, CaCl2 0.04 mM, HEPES 10 mM, NaHCO3 10 mM, glucose 10 mM, Na2HPO4 5 mM; pH 7.4). Fluorescence of the cells was detected using a Victor X3 plate reader (for Calcein, exc. at 485 nm, em. at 535 nm) or the Enspire 2300 (Perkin Elmer) plate reader (for DCV, exc. at 360 nm, em. at 440 nm). Kinetics of fluorescence intensity changes were analyzed to determine relative inhibition, compared to that of a reference agent, providing full inhibition of the ABC transporter. Two of the Vichem compounds examined (VCC979812 and VCC38977) were not compatible with the DCV uptake assay because of their intrinsic fluorescence, therefore for these two compounds ABCG2 transport inhibition was characterized by following mitoxantrone uptake. Mitoxantrone uptake was measured by flow cytometry (BD FACSCanto at 633 nm) by 20 minutes incubation in the presence of 7.5 μM mitoxantrone. Each compound was measured in at least three independent experiments with three parallels in each case. DMSO, used as a solvent of compounds had no effect in this assay at the applied concentration.

[2] = system: HFF, HEK293 and A431 cell lines; type: cell-based, human
Description: as §1, §2

[3] = system: ABCB1-overexpressing A431 cell line; conditions: human, 72 h
[4] = system: ABCG2-overexpressing A431 cell line; conditions: human, 72 h
human ABCB1 [5] = target: T2, human ABCB1; assay: Vanadate-sensitive ATPase activity assay in Sf9 membrane vesicles, ABCB1; type: biochemical; set-up: made in house; host or cells: Sf9 insect cells (baculovirus), membrane vesicles; ABCB1 ATPase Vmax: unit not given here; conditions: for ABC transporter ATPase assay, ABCB1 (summary): S6 summary table; for Effect on ABCB1-ATPase activity (in words): Sf9 membrane vesicles, 0.1–10 μM for the stimulation in b53; for ABCB1 ATPase Vmax: vanadate-sensitive ATPase, from dose-response curves, basal 5.7±0.7; for ABCB1 ATPase, concentration at Vmax: concentration at which Vmax was seen; as to ABC transporter ATPase assay, ABCB1 (summary): key: 0: no observed effect; +: effect observed in the assay; In the ATPase assay showing only inhibition, the - sign is applied
human ABCG2 [6] = target: T3, human ABCG2 (Homo sapiens, UniProt Q9UNQ0); assay: Vanadate-sensitive ATPase activity assay in Sf9 membrane vesicles, ABCG2; type: biochemical; set-up: made in house; host or cells: Sf9 insect cells (baculovirus), membrane vesicles; ABCG2 ATPase, concentration at Vmax: unit not given here; conditions: for ABC transporter ATPase assay, ABCG2 (summary): S6 summary table; for Effect on ABCG2-ATPase activity (in words): Sf9 membrane vesicles, 0.1–10 μM for stimulation, 50 μM for inhibition; for ABCG2 ATPase Vmax: vanadate-sensitive ATPase, from dose-response curves, basal 22±1.4; for ABCG2 ATPase, concentration at Vmax: concentration at which Vmax was seen
T3 sequence (Q9UNQ0 1-655): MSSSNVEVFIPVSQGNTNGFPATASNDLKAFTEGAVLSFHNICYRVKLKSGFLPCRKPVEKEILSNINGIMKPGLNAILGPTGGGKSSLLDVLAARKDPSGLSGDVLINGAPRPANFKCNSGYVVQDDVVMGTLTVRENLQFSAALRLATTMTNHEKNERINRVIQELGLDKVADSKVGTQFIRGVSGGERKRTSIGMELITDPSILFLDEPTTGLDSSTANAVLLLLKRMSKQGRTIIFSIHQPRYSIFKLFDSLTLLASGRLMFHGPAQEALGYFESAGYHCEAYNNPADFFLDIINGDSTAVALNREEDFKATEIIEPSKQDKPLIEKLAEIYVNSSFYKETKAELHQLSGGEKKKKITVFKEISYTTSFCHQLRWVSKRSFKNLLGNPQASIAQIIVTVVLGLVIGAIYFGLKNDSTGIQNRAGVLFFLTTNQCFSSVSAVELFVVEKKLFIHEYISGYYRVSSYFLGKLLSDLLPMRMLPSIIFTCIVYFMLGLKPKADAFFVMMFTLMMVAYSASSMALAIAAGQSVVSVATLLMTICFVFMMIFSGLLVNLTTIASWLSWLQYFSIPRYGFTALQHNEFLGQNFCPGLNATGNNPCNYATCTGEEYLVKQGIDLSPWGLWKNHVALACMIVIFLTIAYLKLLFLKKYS

human ABCG2 [7] = target: T3, human ABCG2; assay: Cellular transport assay, DCV or mitoxantrone uptake in ABCG2-overexpressing PLB cells; type: cell-based; set-up: expressed in transfected cells; host or cells: PLB (human lymphoblastoid) cells, lentiviral transduction; conditions: for ABC transporter transport assay, ABCG2 (summary): S6 summary table; for Effect on ABCG2 mediated transport (in words): PLB cells, compound 5 μM; as to ABC transporter transport assay, ABCG2 (summary): key: 0: no observed effect; +: effect observed in the assay; In the ATPase assay showing only inhibition, the - sign is applied
Description: as §3

T1 sequence (P9WG49 whole entry): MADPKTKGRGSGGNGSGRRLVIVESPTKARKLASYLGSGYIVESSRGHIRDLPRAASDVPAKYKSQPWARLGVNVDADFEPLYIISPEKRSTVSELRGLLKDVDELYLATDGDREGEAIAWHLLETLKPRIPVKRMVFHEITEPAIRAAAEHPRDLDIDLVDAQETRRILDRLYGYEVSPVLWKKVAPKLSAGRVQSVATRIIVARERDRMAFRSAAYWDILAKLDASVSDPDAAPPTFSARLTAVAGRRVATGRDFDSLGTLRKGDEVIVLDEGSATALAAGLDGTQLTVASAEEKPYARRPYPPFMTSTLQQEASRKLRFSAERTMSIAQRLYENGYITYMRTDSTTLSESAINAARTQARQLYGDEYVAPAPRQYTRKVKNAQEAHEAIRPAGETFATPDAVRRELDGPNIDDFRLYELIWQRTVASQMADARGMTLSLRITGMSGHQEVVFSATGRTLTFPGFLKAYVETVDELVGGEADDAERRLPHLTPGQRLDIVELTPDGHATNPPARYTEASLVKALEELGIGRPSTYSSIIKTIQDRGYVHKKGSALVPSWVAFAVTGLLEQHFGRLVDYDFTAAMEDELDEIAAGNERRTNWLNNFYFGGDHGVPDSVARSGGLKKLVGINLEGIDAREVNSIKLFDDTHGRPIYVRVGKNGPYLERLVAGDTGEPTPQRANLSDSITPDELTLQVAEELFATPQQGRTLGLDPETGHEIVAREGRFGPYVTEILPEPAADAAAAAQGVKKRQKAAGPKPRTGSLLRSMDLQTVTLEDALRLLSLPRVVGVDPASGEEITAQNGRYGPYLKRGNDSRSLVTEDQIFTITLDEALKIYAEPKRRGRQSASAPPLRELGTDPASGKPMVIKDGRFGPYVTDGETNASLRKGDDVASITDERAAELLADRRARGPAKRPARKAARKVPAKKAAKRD
T2 sequence (P08183 whole entry): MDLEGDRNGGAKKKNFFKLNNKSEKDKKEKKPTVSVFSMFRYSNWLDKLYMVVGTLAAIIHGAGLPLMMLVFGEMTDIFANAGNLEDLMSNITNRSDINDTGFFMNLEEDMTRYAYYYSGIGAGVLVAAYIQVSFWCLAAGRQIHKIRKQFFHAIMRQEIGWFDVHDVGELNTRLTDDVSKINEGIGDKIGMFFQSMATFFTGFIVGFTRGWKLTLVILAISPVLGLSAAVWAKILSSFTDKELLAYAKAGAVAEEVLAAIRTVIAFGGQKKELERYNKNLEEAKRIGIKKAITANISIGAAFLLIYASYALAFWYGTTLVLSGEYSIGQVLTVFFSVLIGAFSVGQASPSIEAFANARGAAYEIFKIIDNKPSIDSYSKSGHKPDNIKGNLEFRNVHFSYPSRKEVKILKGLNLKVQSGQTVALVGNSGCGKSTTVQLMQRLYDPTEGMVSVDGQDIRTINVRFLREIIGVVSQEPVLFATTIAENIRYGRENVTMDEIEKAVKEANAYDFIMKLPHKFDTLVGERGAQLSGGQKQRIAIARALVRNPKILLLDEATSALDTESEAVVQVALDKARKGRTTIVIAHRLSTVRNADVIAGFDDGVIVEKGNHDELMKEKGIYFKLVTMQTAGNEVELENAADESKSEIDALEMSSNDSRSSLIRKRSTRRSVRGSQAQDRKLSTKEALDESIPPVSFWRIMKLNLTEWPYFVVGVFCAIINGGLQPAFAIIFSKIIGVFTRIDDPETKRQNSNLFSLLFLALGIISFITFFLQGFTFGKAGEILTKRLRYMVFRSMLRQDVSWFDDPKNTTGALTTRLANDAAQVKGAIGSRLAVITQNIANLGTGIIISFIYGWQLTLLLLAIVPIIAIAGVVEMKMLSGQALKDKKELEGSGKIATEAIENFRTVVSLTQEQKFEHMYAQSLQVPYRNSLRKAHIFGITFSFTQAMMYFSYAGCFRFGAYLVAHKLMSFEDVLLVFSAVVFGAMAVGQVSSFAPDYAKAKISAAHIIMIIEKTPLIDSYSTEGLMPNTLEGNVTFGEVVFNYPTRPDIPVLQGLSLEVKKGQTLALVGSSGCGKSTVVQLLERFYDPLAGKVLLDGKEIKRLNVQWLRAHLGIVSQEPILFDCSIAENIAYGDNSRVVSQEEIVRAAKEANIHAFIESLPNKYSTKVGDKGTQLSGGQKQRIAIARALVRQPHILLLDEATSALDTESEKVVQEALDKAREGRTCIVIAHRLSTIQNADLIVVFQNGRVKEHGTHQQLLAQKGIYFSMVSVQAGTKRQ

SMILES	Toxicity in HFF cell line, IC50 (HFF cell line)	IC50 (HEK293 cell line) [µM]	IC50 (parental A431 cell line; Homo sapiens, A-431, 72 h) [µM]	Complete inhibition of MtTopoI (MtTopo-I) [µM]	MIC90 (H37Rv Mtb strain) [µM]	Toxicity in H37Rv assay (summary) (H37Rv Mtb strain)	ABC transporter transport assay, ABCB1 (summary) (human ABCB1 [1])	Toxicity in human cell lines (in words) [2]	ABC transporter ATPase assay, ABCB1 (summary) (human ABCB1 [5])	Effect on ABCB1-ATPase activity (in words) (human ABCB1 [5])	ABCB1 ATPase Vmax (human ABCB1 [5])	ABC transporter ATPase assay, ABCG2 (summary) (human ABCG2 [6])	Effect on ABCG2-ATPase activity (in words) (human ABCG2 [6])	ABCG2 ATPase Vmax (human ABCG2 [6])	ABC transporter transport assay, ABCG2 (summary) (human ABCG2 [7])	Toxicity in HEK293 cell line, IC50 (HEK293 cell line)	Toxicity in parental A431 cell line, IC50 (parental A431 cell line)	Toxicity in mammalian cell lines (summary) ([2]; human, 72 h)	ABCB1 ATPase, concentration at Vmax (human ABCB1 [5]) [µM]	ABCG2 ATPase, concentration at Vmax (human ABCG2 [6])	further results
CCc1c2c(nc3ccc(OC(=O)N4CCC(N5CCCCC5)CC4)cc13)-c1cc3c(c(=O)n1C2)COC(=O)[C@]3(O)CC [Irinotecan, reference compound]	Non-toxic	2.5	8.6	–	–	–	–	–	–	–	–	–	–	–	–	–	–	–	–	–	–
COc1ccc(/C=C/c2nc(NCCCN(C)C)c3cc4ccccc4cc3n2)cc1 [VCC340963]	–	10 to 20	< 5	10 to 25	2.5 (≈ 1.03 µg/mL)	+	+	toxic	0	no measurable effect	7.9±1.2	0	no measurable effect	22.2±4	+	–	–	–	–	–	Growth inhibition of H37Rv mycobacteria (in words) (H37Rv Mtb strain): effectively inhibited the growth; IC50 (HFF cell line; Homo sapiens, HFF): < 5 µM; IC50 (HFF cell line): 2.5 to 5 µM; IC50 (parental A431 cell line): 3.23 µM; Toxicity in mammalian cell lines (summary) [2]: +; ABC transporter modified cytotoxicity, ABCB1 (summary) [3]: 0; ABC transporter modified cytotoxicity, ABCG2 (summary) [4]: 0
Cc1ccc(-n2nc(C(C)(C)C)cc2Nc2nc3ccccc3nc2NCCCO)cc1 [VCC389777]	Non-toxic	–	–	7.5 to 10	–	0	+	non-toxic	+	well measurable stimulatory effect	14.4±1.5	+	significantly stimulated; also recorded: slightly increased	32.0±3.6	+	Non-toxic	Non-toxic	0	12.5	0.4	MIC90 of compounds in H37Rv growth test (H37Rv Mtb strain): N.I.; Effect on ABCB1-ATPase activity (in words) (human ABCB1 [5]; listed as VCC38977): slightly increased
Brc1c2ccccc2c(Br)c2nc(-c3ccco3)c(-c3ccco3)nc12 [VCC450327]	Non-toxic	–	–	0.1	–	0	0	non-toxic	–	–	9.6±1.3	–	–	27.2±0.8	+	Non-toxic	Non-toxic	0	0.19	0.4	MIC90 of compounds in H37Rv growth test (H37Rv Mtb strain): N.I.; Effect on ABCB1 mediated transport (in words) (human ABCB1 [1]): no effect; Effect on ABCG2 mediated transport (in words) (human ABCG2 [7]): only moderately influence; also recorded: only a slight effect
Cc1ccc(C)c(SCc2nc3cc4ccccc4cc3nc2CSc2cc(C)ccc2C)c1 [VCC891909]	Non-toxic+	–	–	7.5 to 10	10.4 (≈ 5 µg/mL)	+	0	–	0	no measurable effect	7.8±1.2	0	no measurable effect	25.3±5	0	Non-toxic	Non-toxic	0	3	0.01	Growth inhibition of H37Rv mycobacteria (in words) (H37Rv Mtb strain): Mtb growth inhibitory effect; Effect on ABCB1 mediated transport (in words) (human ABCB1 [1]): no such transporter inhibitory effect; Effect on ABCG2 mediated transport (in words) (human ABCG2 [7]): no such transporter inhibitory effect
O=c1c(O)c(-c2ccc(O)c(O)c2)oc2cc(O)cc(O)c12 [quercetin, reference compound]	–	–	–	–	–	–	–	–	–	–	–	–	–	38.5±1	–	–	–	–	–	–	–
